Each structure is given as a SMILES string.

Mitogen-activated protein kinase 14, sequence (Q16539 whole entry): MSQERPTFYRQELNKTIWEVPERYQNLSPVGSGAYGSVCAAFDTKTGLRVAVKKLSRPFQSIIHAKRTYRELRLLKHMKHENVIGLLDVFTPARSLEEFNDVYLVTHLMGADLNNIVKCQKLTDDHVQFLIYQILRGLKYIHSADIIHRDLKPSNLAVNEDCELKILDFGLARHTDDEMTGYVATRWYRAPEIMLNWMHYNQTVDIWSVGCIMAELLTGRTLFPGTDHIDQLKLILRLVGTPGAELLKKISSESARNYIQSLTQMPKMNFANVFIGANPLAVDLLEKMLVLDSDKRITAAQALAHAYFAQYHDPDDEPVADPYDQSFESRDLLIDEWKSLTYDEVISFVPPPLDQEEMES

The assay concerns the target Mitogen-activated protein kinase 14 (Homo sapiens, UniProt Q16539). Put plainly: P38 MAP Kinase Assay. The conditions noted are these: pH 7.5; 37 °C. The source says:
Kinase assay using p38alpha MAP.
In turn, `COc1cc(-c2cc(-c3ccc(Br)cc3)nc(N)c2C#N)cc(OC)c1OC` [MAP Kinase Inhibitor, 1] gave a 50% inhibitory concentration (IC50) of 2000 nM.
Take `Cc1ccc(-c2cc(-c3ccc(Br)cc3)nc(N)c2C#N)o1` [MAP Kinase Inhibitor, 2]: the IC50 was 70 nM.
On to `N#Cc1c(-c2cccnc2)cc(-c2ccc(Br)cc2)nc1N` [MAP Kinase Inhibitor, 3], for which it took 3700 nM to reach half-maximal inhibition (IC50).
`N#Cc1c(-c2ccc(Cl)c(Cl)c2)cc(-c2ccc(Br)cc2)nc1N` [MAP Kinase Inhibitor, 4]: the IC50 came out at 3680 nM.
As to `N#Cc1c(-c2c[nH]c3ccccc23)cc(-c2ccc(Br)cc2)nc1N` [MAP Kinase Inhibitor, 6], 2650 nM corresponded to half-maximal inhibition (IC50).
Consider `N#Cc1c(-c2ccc(Br)cc2)cc(-c2ccc(Br)cc2)nc1N` [MAP Kinase Inhibitor, 7], for which the IC50 stood at 760 nM.
Regarding `COc1cc(-c2cc(-c3ccc(Br)cc3)[nH]c(=O)c2C#N)cc(OC)c1OC` [MAP Kinase Inhibitor, 8], the 50% inhibitory concentration (IC50) came to 1220 nM.
In the case of `N#Cc1c(-c2ccc(Cl)c(Cl)c2)cc(-c2ccc(Br)cc2)[nH]c1=O` [MAP Kinase Inhibitor, 11] it was 120 nM; in that of `N#Cc1c(-c2ccc(Br)cc2)cc(-c2ccc(Br)cc2)[nH]c1=O` [MAP Kinase Inhibitor, 14], 4400 nM.

Broadly, the IC50 is the concentration needed to halve the response being measured.
